Assay results published in article PMC6910946, “Multiple roles of Bet v 1 ligands in allergen stabilization and modulation of endosomal protease activity” (Allergy, 2019).
Entries after “also recorded” stand apart in the source; their conditions may differ.

Columns and labels:
[1] = test system: CD11c+ murine bone marrow–derived dendritic cells (BMDCs); test: In vitro antigen uptake of labeled Bet v 1 by BMDCs; type: cell-based, mouse; conditions: Bet v 1 with or without ligand; 1, 6, 24 h; FACS
Description: (§1) The ability of ligand‐loaded Bet_v_1 to induce IgE‐antigen cross‐linking and basophil degranulation was assessed by mediator‐release assays using rat basophil (RBL‐2H3) cells, transfected with the human high‐affinity IgE receptor (FcεRI), as previously described.2, 24 In vitro uptake of labeled Bet_v_1 was performed using CD11c^+ murine bone marrow–derived dendritic cells (BMDCs). The maturation of human monocyte‐derived dendritic cells (moDCs) was analyzed as previously described.2 T‐cell proliferation assays using CD4^+ T‐cell hybridomas were performed as previously described.17 A detailed description of the in vitro assays is available (Appendix [Link], [Link]).
BMDCs from C57BL/6 mouse bone marrow were isolated as described previously.^5 cultured in BMDC medium (RPMI 1640, 5% fetal calf serum, 2 mM L-glutamine, 1% penicillin-streptomycin, 20% granulocyte-macrophage colony-stimulating factor supernatant and 200 µM β-mercaptoethanol) (BMDC medium) for 10 days, and stored frozen in liquid nitrogen. BMDCs were treated over a certain period of time (24, 6 or 1 hours) with 0.5 µg of Bet v 1 per 2x10^5 cells. Bet v 1 was labeled with pHrodo™ Red succinimidyl ester (Thermo Fisher Scientific, Waltham, MA, USA) and pre-incubated with one of the ligands (DOC, Q3OS or PPE1). CD11c^+ cells were analyzed via flow cytometry (allophycocyanin-conjugated anti-mouse CD11c antibody, clone N418; eBioscience, Inc., San Diego, CA, USA) on a FACSCanto II instrument (BD Biosciences, San Jose, CA, USA). For the live/dead staining a fixable viability stain 450 (BD Biosciences) was used. Granulocytes and monocytes were excluded via the V450 Rat anti-Mouse LY-6G and LY-6C (BD Biosciences) antibody. Data were recorded and analyzed using the BD FACSDiva software (BD Biosciences). Statistical analysis was performed using ANOVA with a Bonferroni post-test to compare all groups. The data represent the mean of duplicate experiments and are derived from at least 2 independent experiments.

[2] = molecular target: T1, Bet v 1 / human cathepsin S (Betula pendula, UniProt P15494); test: Bet v 1 in vitro proteolytic degradation assay with cathepsin S; type: biochemical; conditions: for processing (degradation) of Bet v 1 by cathepsin S: Bet v 1 20 µM, ligand 100 µM, cathepsin S 1 µM, pH 5.0, 0-24 h, SDS-PAGE
T1 construct: made in house
T1 sequence (P15494 2-160 limits assumed): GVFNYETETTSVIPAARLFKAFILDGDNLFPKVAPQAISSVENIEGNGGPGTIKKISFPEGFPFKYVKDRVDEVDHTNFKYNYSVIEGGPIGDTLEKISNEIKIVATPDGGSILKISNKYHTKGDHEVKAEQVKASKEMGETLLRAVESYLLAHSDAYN
Description: (§2) The endolysosomal degradation assay was performed with ligand‐bound (either DOC, PPE1, or Q3OS in 10× molar excess) and Bet_v_1 without ligands (apo‐Bet_v_1) as previously described.21 Recombinant human cathepsin S and human legumain were used in proteolytic degradation assays. Experimental details are described in the Appendix [Link], [Link].
(§3) Recombinant human cathepsin S and human legumain were heterologously expressed and purified as described previously.^9,10 Bet v 1 (20 µM) was incubated with ligand (100 µM) in digestion buffer (0.1 M sodium acetate, pH 5.0, 0.1 M sodium chloride, 5 mM EDTA, and 2 mM DTT) at room temperature prior to the addition of cathepsin S (1 µM) or legumain (2 µM). […] At each time point, the reaction was halted by the addition of E64 (for cathepsin S) or YVAD-CMK (for legumain) at a final concentration of 50 µM, and analyzed by SDS-PAGE. Control reactions without the addition of protease were performed. The generated peptides were analyzed using mass spectrometry.

[3] = molecular target: T2, Bet v 1 / human legumain (Betula pendula, UniProt P15494); test: Bet v 1 in vitro proteolytic degradation assay with legumain; type: biochemical
T2 construct: made in house
T2 sequence (P15494 2-160 limits assumed): T1 sequence (P15494 2-160 limits assumed)
Description: as §2, §3

[4] = test system: murine BMDCs / CD4+ T‐cell hybridoma cells specific for epitope Thr142‐Ala153; test: T-cell proliferation assay: Bet v 1 epitope presentation by BMDCs to CD4+ T-cell hybridomas (IL-2); type: cell-based, mouse; conditions: Bet v 1 10 µg/mL with 10-fold molar excess of ligand; 16, 24, 32, 48 h
Description: as §1
In order to test the relevance of the identified Bet_v_1 ligands in processing and presentation by DCs in a time‐dependent manner, we incubated BMDCs with Bet_v_1 in complex with different ligands and detected the presentation of Bet_v_1 by using CD4^+ T‐cell hybridoma cells specific for the immune‐dominant T‐cell epitope (Thr142‐Ala153). T‐cell proliferation was monitored indirectly by IL‐2 secretion (Figure 5).
Bet v 1 was incubated over night with a 10-fold molar excess of either Q3OS, PPB1, PPE1, or DOC before incubation with murine BMDCs at a concentration of 10 μg/mL in BMDC medium (online supporting information). After 16, 24, 32, and 48h, DCs were washed and CD4^+ T-cell hybridomas specific for the immune-dominant epitope 142-153 of Bet v 1 were added to the culture at a ratio of 1:10 (DC:T-cell) for 24h^17. Supernatants were harvested and IL-2 levels were determined by ELISA (Invitrogen, Thermo Fisher Scientific, Waltham, MA, USA). As a reference, BMDCs were pulsed at each time point with different concentrations of peptide 142-153 and co-cultured with CD4^+ T-cell hybridomas. By interpolating in a standard curve, a µM peptide equivalent from the measured IL-2 was calculated from DCs pulsed with different peptide concentrations. The assays were carried out in triplicates.

[5] = relative abundance of peptides by mass spectrometry

| SMILES | antigen uptake of pHrodo Red‐labeled Bet v 1 [1] | processing (degradation) of Bet v 1 by cathepsin S [2] | processing (degradation) of Bet v 1 by legumain ([3]; Bet v 1 20 µM, ligand 100 µM, legumain 2 µM, pH 5.0, 0-24 h, SDS-PAGE) | MHCII presentation of Bet v 1 epitope (Thr142‐Ala153) on DCs, IL‐2 secretion [4] | Bet v 1 cleavage site frequency with cathepsin S [2, 5] | Bet v 1 cleavage site frequency with legumain [3, 5] |
| --- | --- | --- | --- | --- | --- | --- |
| C[C@H](CCC(=O)O)[C@H]1CC[C@H]2[C@@H]3CC[C@@H]4C[C@H](O)CC[C@]4(C)[C@H]3C[C@H](O)[C@]12C [DOC, sodium deoxycholate, reference compound] | None of the above described readouts was influenced | strongly retarded | strongly retarded | affected only after 48 hours |  |  |
| O=c1c(O[C@@H]2O[C@H](CO)[C@@H](O)[C@H](O)[C@H]2O[C@@H]2O[C@H](CO)[C@@H](O)[C@H](O)[C@H]2O)c(-c2ccc(O)c(O)c2)oc2cc(O)cc(O)c12 [Q3OS, quercetin 3‐O‐sophoroside] | None of the above described readouts was influenced |  |  | did not affect the presentation |  |  |
| CCC1C(=O)CC(O)C1/C=C/C(O)CCCCCCCC(=O)O (centres unmarked) [PPE1, E1 phytoprostanes] | None of the above described readouts was influenced | strongly retarded |  | consistently affected the MHCII presentation; also recorded: unique reduction in the presentation of the T‐cell epitopes | preferential cleavage was observed after Phe20, Lys21, and in the C‐terminal region | cleavage frequency after Asn120 and Asp157 strongly increased |
